Results published in US20110319379A1, “Substituted Indazole Amides And Their Use As Glucokinase Activators” (priority 2009, published 2011).

molecular target: T1, recombinant human glucokinase (Homo sapiens, UniProt P35557); experiment: Assay 2: Evaluating Activator Potency in a Matrix Assay at Multiple Glucose Concentrations; type: biochemical; details: Assay 2 matrix assay; 16 glucose concentrations; intrinsic EC50 = concentration affording a 50% reduction in the enzyme's Km (for glucose); read-out: Glucokinase EC50
T1 construct: Full-length glucokinase (beta cell isoform) was His-tagged at the N-terminus and purified by a Ni column followed by size exclusion chromatography as described above; His tag; made in house; host or cells: E. coli BL21(DE3), vector pBCGK
T1 sequence (P35557 1-465): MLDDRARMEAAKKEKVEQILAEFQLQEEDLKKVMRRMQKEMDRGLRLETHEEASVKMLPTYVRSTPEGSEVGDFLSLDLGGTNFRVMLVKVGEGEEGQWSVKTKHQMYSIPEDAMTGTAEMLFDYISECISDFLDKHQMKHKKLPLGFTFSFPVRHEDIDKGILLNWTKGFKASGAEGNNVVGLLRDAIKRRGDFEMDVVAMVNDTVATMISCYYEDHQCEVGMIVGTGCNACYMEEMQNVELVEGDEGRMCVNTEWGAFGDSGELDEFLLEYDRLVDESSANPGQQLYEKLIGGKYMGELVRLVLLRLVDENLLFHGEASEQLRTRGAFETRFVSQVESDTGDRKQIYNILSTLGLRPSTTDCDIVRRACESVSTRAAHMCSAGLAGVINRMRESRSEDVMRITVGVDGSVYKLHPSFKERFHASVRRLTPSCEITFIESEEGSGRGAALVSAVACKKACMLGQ
Procedure: Representative compounds of this invention were evaluated in biochemical assays (Assay 1 or Assay 2) to characterize their glucokinase activation properties.
The recombinant human glucokinase protein utilized in both assays was prepared and purified as described below.
BL21(DE3) cells (Invitrogen Corporation, Carlsbad, Calif.) containing pBCGK (C or N H is) vector were grown at 37° C. (in 2XYT) until the OD600 was between 0.6-1.0. Expression was induced by addition of isopropylthiogalactoside to a final concentration of 0.1-0.2 mM to the cells which were then incubated overnight at 23° C. The next day, cells were harvested via centrifugation at 5000 rpm for 15 minutes at 4° C. The cell pellet was stored at −80° C. for future purification.
Beta Cell Glucokinase His-Taq Purification Conditions: A Ni-NTA (Quigan, Germantown, Md.) column (15-50 mL) was used for separation. Two buffers were prepared, 1) a lysis/nickel equilibration and wash buffer and 2) a nickel elution buffer. The lysis/equilibration/wash buffer was prepared as such: 25 mM HEPES buffer at pH 7.5, 250 mM NaCl, 20 mM imidazole, and 14 mM β-mercaptoethanol as final concentrations. The elution buffer was prepared as such: 25 mM HEPES at pH 7.5, 250 mM NaCl, 400 mM imidazole, and 14 mM β-mercaptoethanol as final concentrations. The buffers were each filtered with a 0.22 μm filter prior to use. The cell pellet (1 L culture) was resuspended in 300 mL of the lysis/equilibration buffer. The cells were then lysed (3 times) with a Microfluidics Model 110Y microfluidizer (Microfluidics Corporation, Newton, Mass.). The slurry was centrifuged with a Beckman Coulter Model LE-80K ultracentrifuge (Beckman Coulter, Fullerton, Calif.) at 40,000 rpm for 45 minutes at 4° C. The supernatant was transferred to a chilled flask. A volume of 20 μl was saved for gel analysis. A Pharmacia AKTA (GMI, Inc., Ramsey, Minn.) purification system was used for separation. The prime lines were purged with lysis/equilibration buffer. The Ni-NTA column was equilibrated with 200 mL of the lysis/equilibration buffer at a flow rate of 5 mL/minute. The supernantant was loaded over the column at 4 mL/minute and the flow-through was collected in a flask. The unbound proteins were washed with lysis/equilibration buffer at a flow rate of 5 mL/minute until the ultraviolet reaches baseline. The protein was then eluted from the column with the imidazole elution buffer via imidazole gradient 20 mM to 400 mM over 320 mL. The column was then stripped of any additional protein with 80 mL of the elution buffer. The elution fractions were each 8 mL, for a total yield of 50 samples. Fractions were analyzed by sodium dodecyl sulfate polyacrylamide (SDS-PAGE) and the fractions containing protein of interest were pooled and concentrated to 10 mL using ultrafiltration cell with a 10,000 molecular weight cut-off (MWCO) Millipore membrane (Sigma-Aldrich, St. Louis, Mo.) under nitrogen gas (60 psi). Protein was further purified by size exclusion chromatography (SEC) using a […] (320 mL) (Amersham Pharmacia, Uppsala, Sweden). SEC was equilibrated with 450 mL sizing buffer containing 25 mM HEPES pH 7.0, 50 mM NaCl, and 5 mM dithiothreitol. Concentrated protein was then loaded over SEC and elution with 400 mL sizing buffer was performed overnight at 0.5 mL/minute. The elution fractions were 5 mL each. The fractions were analyzed by SDS-PAGE and protein containing fractions were pooled. Concentration was measured using Bradford Assay/BSA Standard. Purified protein was stored in small aliquots at −80° C.
Assay 2: Evaluating Activator Potency in a Matrix Assay at Multiple Glucose Concentrations
Utilizing an adaptation of this method, representative compounds of the current invention were evaluated at 22 different concentrations and 16 different glucose concentrations in a coupled enzyme assay system that detects glucokinase activity via depletion of β-NADH.

| EC50 [nM] | Structure (SMILES) |
| --- | --- |
| 555 | CCn1cc2c(Oc3ccc(S(C)(=N)=O)cc3)cc(C(=O)Nc3ccc(C)cn3)cc2n1 (single isomer, unassigned) [Example 1CW, 2-ethyl-N-(5-methylpyridin-2-yl)-4-[4-(S-methylsulfonimidoyl)phenoxy]-2H-indazole-6-carboxamide] |
| 1370 | CCn1cc2c(Oc3ccc(S(C)(=N)=O)cc3)cc(C(=O)Nc3ccc(C)cn3)cc2n1 (single isomer, unassigned) [Example 1CX, 2-ethyl-N-(5-methylpyridin-2-yl)-4-[4-(S-methylsulfonimidoyl)phenoxy]-2H-indazole-6-carboxamide] |
| 532 | CCn1cc2c(Oc3cnc(C(=O)N(C)C)cn3)cc(C(=O)Nc3cnc(OC)cn3)cc2n1 [Example 1AF, 4-(5-(dimethylcarbamoyl)pyrazin-2-yloxy)-2-ethyl-N-(5-methoxypyrazin-2-yl)-2H-indazole-6-carboxamide] |
| 713 | Cc1cnc(NC(=O)c2cc(Oc3ccc(C(=O)N(C)C)cc3)c3cn(C)nc3c2)cn1 [Example 1AG, 4-(4-(dimethylcarbamoyl)phenoxy)-2-methyl-N-(5-methylpyrazin-2-yl)-2H-indazole-6-carboxamide] |
| 36000 | Cn1cc2c(Oc3cnc(C(=O)N4CCC4)cn3)cc(C(=O)Nc3cnn(C)n3)cc2n1 [Example 1AH, 4-(5-(azetidine-1-carbonyl)pyrazin-2-yloxy)-2-methyl-N-(2-methyl-2H-1,2,3-triazol-4-yl)-2H-indazole-6-carboxamide] |
| 703 | CN(C)S(=O)(=O)c1ccc(Oc2cc(C(=O)Nc3cnn(C)n3)cc3nn(C)cc23)cc1 [Example 1AJ, 4-{4-[(dimethylamino)sulfonyl]phenoxy}-2-methyl-N-(2-methyl-2H-1,2,3-triazol-4-yl)-2H-indazole-6-carboxamide] |
| 878 | CNS(=O)(=O)c1ccc(Oc2cc(C(=O)Nc3cnc(C)cn3)cc3nn(C)cc23)cc1 [Example 1AK, 4-{4-[(methylamino)sulfonyl]phenoxy}-2-methyl-N-(5-methylpyrazin-2-yl)-2H-indazole-6-carboxamide] |
| 3170 | Cc1cnc(NC(=O)c2cc(Oc3ccc(S(=O)(=O)N(C)C)nc3)c3cn(C)nc3c2)cn1 [Example 1AL, 4-({6-[(dimethylamino)sulfonyl]pyridin-3-yl}oxy)-2-methyl-N-(5-methylpyrazin-2-yl)-2H-indazole-6-carboxamide] |
| 3880 | CN(C)S(=O)(=O)c1ccc(Oc2cc(C(=O)Nc3ccn(C)n3)cc3nn(C)cc23)cn1 [Example 1AM, 4-({6-[(dimethylamino)sulfonyl]pyridin-3-yl}oxy)-2-methyl-N-(1-methyl-1H-pyrazol-3-yl)-2H-indazole-6-carboxamide] |
| 532 | CCn1cc2c(Oc3cnc(N(C)S(C)(=O)=O)cn3)cc(C(=O)Nc3ccc(C)cn3)cc2n1 [Example 1AN, 2-ethyl-4-({5-[methyl(methylsulfonyl)amino]pyrazin-2-yl}oxy)-N-(5-methylpyridin-2-yl)-2H-indazole-6-carboxamide] |
| 1290 | Cn1ccc(NC(=O)c2cc(Oc3ccc(S(C)(=O)=O)nc3)c3cn(C)nc3c2)n1 [Example 1AO, 2-methyl-N-(1-methyl-1H-pyrazol-3-yl)-4-{[6-(methylsulfonyl)pyridin-3-yl]oxy}-2H-indazole-6-carboxamide] |
| 1430 | Cc1ccc(NC(=O)c2cc(Oc3ccc(S(C)(=O)=O)nc3)c3cn(C)nc3c2)nc1 [Example 1AP, 2-methyl-N-(5-methylpyridin-2-yl)-4-{[6-(methylsulfonyl)pyridin-3-yl]oxy}-2H-indazole-6-carboxamide] |
| 5370 | Cc1cnc(NC(=O)c2cc(Oc3ccc(S(C)(=O)=O)nc3)c3cn(C)nc3c2)cn1 [Example 1AQ, 2-methyl-N-(5-methylpyrazin-2-yl)-4-{[6-(methylsulfonyl)pyridin-3-yl]oxy}-2H-indazole-6-carboxamide] |

same assay, conditions: Glucokinase EC50, Assay 2 matrix assay; 16 glucose concentrations; intrinsic EC50 = concentration affording a 50% reduction in the enzyme's Km (for glucose)

| Structure (SMILES) | EC50 [nM] |
| --- | --- |
| Cc1cnc(NC(=O)c2cc(Oc3ccc(S(=O)(=O)N(C)C)cc3)c3cn(C)nc3c2)cn1 [Example 1AI, 4-{4-[(dimethylamino)sulfonyl]phenoxy}-2-methyl-N-(5-methylpyrazin-2-yl)-2H-indazole-6-carboxamide] | 431 |
